The test system of this data set is rodent carcinogenicity bioassays, tumor incidence. Kind of data set: CCRIS carcinogenicity studies. The note with it: Dose: 0, Dose: 0. In outline:
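NCI-built, expert-reviewed records of carcinogenicity and related test outcomes (mutagenicity, tumor promotion/inhibition) compiled from published and report sources, historical span 1985-2011, not updated.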

Activity calls are given as the source filed them. No rule for the calls is given here.

Turning to `Cc1cc2c3c(cccc3c1)-c1ccccc1-2`, the carcinogen call (Species: MOUSE, Strain/Sex: CD-1/FEMALE, Route: INTRAPERITONEAL, 3.46, 17.3 UMOL (TOTAL DOSE) IN DMSO ADMINISTERED ON DAYS 1,8, AND 15 OF LIFE (STUDY DURATION: 52 WK), 3.46, 17.3 UMOL (TOTAL DOSE) IN DMSO ADMINISTERED ON DAYS 1,8, AND 15 OF LIFE (STUDY DURATION: 52 WK), Tumor Site: Type of Lesion: LUNG: TUMORS, LIVER: TUMORS) was “active; positive” and the carcinogen call (Species: MOUSE, Strain/Sex: CD-1/MALE, Route: INTRAPERITONEAL, 3.46, 17.3 UMOL (TOTAL DOSE) IN DMSO ADMINISTERED ON DAYS 1,8, AND 15 OF LIFE (STUDY DURATION: 52 WK), 3.46, 17.3 UMOL (TOTAL DOSE) IN DMSO ADMINISTERED ON DAYS 1,8, AND 15 OF LIFE (STUDY DURATION: 52 WK), Tumor Site: Type of Lesion: LUNG: TUMORS, LIVER: TUMORS) is “active; positive”.

With `c1ccc2occc2c1`, the carcinogen call (Species: MOUSE, Strain/Sex: B6C3F1/FEMALE, Route: GAVAGE, 120, 240 MG/KG IN CORN OIL 5 D/WK FOR 103 WK (STUDY DURATION: 104 WK), 120, 240 MG/KG IN CORN OIL 5 D/WK FOR 103 WK (STUDY DURATION: 104 WK), Tumor Site: Type of Lesion: LUNG: ALVEOLAR/BRONCHIOLAR ADENOMA, ALVEOLAR/BRONCHIOLAR CARCINOMA, LIVER: HEPATOCELLULAR ADENOMA, HEPATOCELLULAR ADENOM) is “active; positive”; the carcinogen call (Species: MOUSE, Strain/Sex: B6C3F1/MALE, Route: GAVAGE, 60, 120 MG/KG IN CORN OIL 5 D/WK FOR 103 WK (STUDY DURATION: 104 WK), 60, 120 MG/KG IN CORN OIL 5 D/WK FOR 103 WK (STUDY DURATION: 104 WK), Tumor Site: Type of Lesion: LUNG: ALVEOLAR/BRONCHIOLAR ADENOMA, ALVEOLAR/BRONCHIOLAR ADENOMA OR CARCINOMA, LIVER: HEPATOCELLULAR ADENOMA, HEPATOCELL) was “active; positive”; the carcinogen call (Species: RAT, Strain/Sex: F344/FEMALE, Route: GAVAGE, 60, 120 MG/KG IN CORN OIL 5 D/WK FOR 103 WK (STUDY DURATION: 104 WK), 60, 120 MG/KG IN CORN OIL 5 D/WK FOR 103 WK (STUDY DURATION: 104 WK), Tumor Site: Type of Lesion: KIDNEY: TUBULAR CELL ADENOCARCINOMA) is “active; positive”; the carcinogen call (Species: RAT, Strain/Sex: F344/MALE, Route: GAVAGE, 30, 60 MG/KG IN CORN OIL 5 D/WK FOR 103 WK (STUDY DURATION: 104 WK), 30, 60 MG/KG IN CORN OIL 5 D/WK FOR 103 WK (STUDY DURATION: 104 WK)) was “inactive; negative”.

On to `CC(=O)CN(CC(C)O)N=O` (configuration not stated), for which the carcinogen call reads like this: (Species: RAT, Strain/Sex: F344/FEMALE, Route: INTRAVESICULAR, 2.5 MG IN 0.2 ML ETHANOL:DEIONIZED WATER (1:3) 2/WK FOR 22 WK (TOTAL DOSE 0.7 MMOL) (STUDY DURATION: LIFESPAN), Tumor Site: Type of Lesion: BLADDER: TUMOR, LIVER: TUMOR) “active; positive”; (Species: RAT, Strain/Sex: F344/FEMALE, Route: ORAL, 55, 220 MG/L DRINKING WATER 5 D/WK FOR 40, 21 WK (TOTAL DOSE 220; 460 MG) (STUDY DURATION: LIFESPAN), 55, 220 MG/L DRINKING WATER 5 D/WK FOR 40, 21 WK (TOTAL DOSE 220; 460 MG) (STUDY DURATION: LIFESPAN), Tumor Site: Type of Lesion: LIVER: CARCINOMA, ANGIOSARCOMA, LUNG: TUMOR, ESOPHAGUS: CARCINOMA, PAPILLOMA, NASAL CAVITY: TUMOR, Tumor Site: Type of Lesion: LIVER: CARCINOMA, ANGIOSARCOMA, LUNG: TUMOR, ESOPHAGUS: CARCINOMA, PAPILLOMA, NASAL CAVITY: TUMOR) “active; positive”.

`O=C/C(Br)=C/c1ccccc1`: the carcinogen call (Species: MOUSE, Strain/Sex: SLC:DDY/FEMALE, Route: DERMAL, 0.25, 1, 4% IN OLIVE OIL 2/WK FOR 79 WK (STUDY DURATION: 79 WK), 0.25, 1, 4% IN OLIVE OIL 2/WK FOR 79 WK (STUDY DURATION: 79 WK)) is “inactive; negative”.

Turning to `CC1=C(C(=O)Nc2ccccc2)SCCO1`, the carcinogen call was “inactive; negative (purity >99%; study details not given in source)” (Species: Mouse, Strain/Sex: Charles River/Female (50 per group in experimental animals; 75 controls), Route: Oral, 50, 2,500, 5,000 ppm in diet for 19 mo, 50, 2,500, 5,000 ppm in diet for 19 mo); “active; positive (purity >99%; study details not given in source)” (Species: Mouse, Strain/Sex: Charles River/Male (50 per group in experimental animals; 75 controls), Route: Oral, 50, 2,500, 5,000 ppm in diet for 19 mo, 50, 2,500, 5,000 ppm in diet for 19 mo, Tumor Site: Type of Lesion: LUNG, Pulmonary adenomas and alveolar-bronchiolar adenomas (34% in high dose group vs 17% in controls; significant), Tumor Site: Type of Lesion: LUNG, Pulmonary adenomas and alveolar-bronchiolar adenomas (34% in high dose group vs 17% in controls; significant)); “inactive; negative (purity 97.7%; study details not given in source)” (Species: Rat, Strain/Sex: Crl:CD SD/Female (50 per group), Route: Oral, 20, 300, 600 ppm in diet for 102 wk, 20, 300, 600 ppm in diet for 102 wk); “inactive; negative (purity 97.7%; study details not given in source)” (Species: Rat, Strain/Sex: Crl:CD SD/Male (50 per group), Route: Oral, 20, 200, 400 ppm in diet for 102 wk, 20, 200, 400 ppm in diet for 102 wk).

In the case of `NC(=O)N/N=C/c1ccc([N+](=O)[O-])o1`, the carcinogen call is, setting by setting: (Species: MOUSE, Strain/Sex: B6C3F1/FEMALE, Route: ORAL, 150, 310 PPM IN DIET (STUDY DURATION: 2 YR), 150, 310 PPM IN DIET (STUDY DURATION: 2 YR), Tumor Site: Type of Lesion: OVARIES: GRANULOSA CELL TUMOR) “active; positive”; (Species: MOUSE, Strain/Sex: B6C3F1/FEMALE, Route: ORAL, 150, 310 PPM IN DIET FOR 103 WK (STUDY DURATION: 105 WK), 150, 310 PPM IN DIET FOR 103 WK (STUDY DURATION: 105 WK), Tumor Site: Type of Lesion: OVARY: GRANULOSA CELL TUMOR, OVARY: GRANULOSA CELL TUMOR OR LUTEOMA;OVARY: MIXED TUMOR,BENIGN, OVARY: TUBULAR CELL ADENO, Tumor Site: Type of Lesion: OVARY: GRANULOSA CELL TUMOR, OVARY: GRANULOSA CELL TUMOR OR LUTEOMA;OVARY: MIXED TUMOR,BENIGN, OVARY: TUBULAR CELL ADENO) “active; positive”; (Species: MOUSE, Strain/Sex: B6C3F1/MALE, Route: ORAL, 150, 310 PPM IN DIET (STUDY DURATION: 2 YR), 150, 310 PPM IN DIET (STUDY DURATION: 2 YR)) “inactive; negative”; (Species: MOUSE, Strain/Sex: B6C3F1/MALE, Route: ORAL, 150, 310 PPM IN DIET FOR 103 WK (STUDY DURATION: 105 WK), 150, 310 PPM IN DIET FOR 103 WK (STUDY DURATION: 105 WK)) “inactive; negative”; (Species: MOUSE, Strain/Sex: ICR/MALE, FEMALE, Route: SUBCUTANEOUS, 75 UG/G ONCE WITHIN 12 HR OF BIRTH AND ONCE ON DAYS 7,14 AND 21 OF AGE (STUDY DURATION: 32 WK), Tumor Site: Type of Lesion: LUNG: PAPILLARY ADENOMA) “active; positive”; (Species: MOUSE, Strain/Sex: ICR/MALE, FEMALE, Route: TRANSPLACENTAL, 75 UG/G ADMINISTERED SUBCUTANEOUSLY TO MOTHERS ON DAYS 13, 15 AND 17 OF GESTATION (STUDY DURATION: 33 WK)) “inactive; negative”. Further, the carcinogen call was “active; positive” (Species: RAT, Strain/Sex: F344/FEMALE, Route: ORAL, 310, 620 PPM IN DIET FOR 103 WK (STUDY DURATION: 105 WK), 310, 620 PPM IN DIET FOR 103 WK (STUDY DURATION: 105 WK), Tumor Site: Type of Lesion: MAMMARY GLAND: FIBROADENOMA); “equivocal” (Species: RAT, Strain/Sex: F344/MALE, Route: ORAL, 310, 620 PPM IN DIET FOR 103 WK (STUDY DURATION: 105 WK), 310, 620 PPM IN DIET FOR 103 WK (STUDY DURATION: 105 WK), Tumor Site: Type of Lesion: SEBACEOUS GLAND: ADENOMA, SKIN: TRICHOEPITHELIOMA, TUNICA VAGINALIS: MESOTHELIOMA, PREPUTIAL GLAND: ADENOMA, CARCINOMA, Tumor Site: Type of Lesion: SEBACEOUS GLAND: ADENOMA, SKIN: TRICHOEPITHELIOMA, TUNICA VAGINALIS: MESOTHELIOMA, PREPUTIAL GLAND: ADENOMA, CARCINOMA); “active; positive” (Species: RAT, Strain/Sex: F344 INBRED/FEMALE, Route: ORAL, 310, 620 PPM IN DIET (STUDY DURATION: 2 YR), 310, 620 PPM IN DIET (STUDY DURATION: 2 YR), Tumor Site: Type of Lesion: MAMMARY GLAND: FIBROADENOMA).
